ChEMBL document CHEMBL5257035, “Nucleoside Derived Antibiotics to Fight Microbial Drug Resistance: New Utilities for an Established Class of Drugs?” (J Med Chem, 2016)
Values after ≈ are worked out from the molar mass of the structure shown.

Assays:
Aspergillus fumigatus [1] = test: Antifungal activity against Aspergillus fumigatus assessed as inhibition of fungal growth; format: functional
Candida albicans [2] = test: Antifungal activity against Candida albicans assessed as inhibition of fungal growth; format: functional
Pseudomonas aeruginosa = test: Antimicrobial activity against Pseudomonas aeruginosa M35 assessed as reduction in microbial growth; format: functional
Escherichia coli = test: Antibacterial activity against Escherichia coli ATCC 25922 assessed as bacterial growth inhibition measured after 48 hrs by microdilution method; format: functional
[3] = molecular target: T1, Phospho-N-acetylmuramoyl-pentapeptide-transferase (Escherichia coli K-12, UniProt P0A6W3); test: Inhibition of MraY in Escherichia coli K12
T1 sequence (P0A6W3 whole entry): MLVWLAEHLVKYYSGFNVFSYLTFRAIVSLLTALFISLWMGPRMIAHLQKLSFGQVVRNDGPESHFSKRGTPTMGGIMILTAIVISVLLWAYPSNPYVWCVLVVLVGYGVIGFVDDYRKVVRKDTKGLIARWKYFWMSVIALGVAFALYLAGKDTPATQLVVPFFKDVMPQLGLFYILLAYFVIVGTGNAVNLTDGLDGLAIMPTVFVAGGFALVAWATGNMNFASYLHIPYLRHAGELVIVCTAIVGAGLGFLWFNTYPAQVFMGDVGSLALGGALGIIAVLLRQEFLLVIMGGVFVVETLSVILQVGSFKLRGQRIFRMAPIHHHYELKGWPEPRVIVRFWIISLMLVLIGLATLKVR

[4] = test system: Cutaneotrichosporon cutaneum; test: Antifungal activity against Trichosporon cutaneum 3071 assessed as reduction in microbial growth inhibition for 48 hrs by broth microdilution assay; format: functional
Candida albicans [5] = test: Antifungal activity against Candida albicans SC5314 assessed as reduction in microbial growth inhibition incubated for 48 hrs by broth microdilution assay; format: functional
Cryptococcus neoformans [6] = test: Antifungal activity against Cryptococcus neoformans assessed as reduction in fungal growth; format: functional
Coccidioides immitis = test: Antifungal activity against Coccidioides immitis assessed as reduction in fungal growth; format: functional
[7] = Inhibition of Candida albicans chitin synthase
Candida albicans [8] = test: Antifungal activity against Candida albicans B-311 assessed as reduction fungal growth incubated for 16 hrs by microbroth dilution method; format: functional
[9] = Inhibition of Candida albicans SC5314 chitin synthase using UDP-GlcNAc as substrate incubated for 1 hr
Cryptococcus neoformans [10] = test: Antifungal activity against Cryptococcus neoformans assessed as fungal growth inhibition measured after 24 hrs by micro broth dilution method; format: functional
Candida albicans [11] = test: Antifungal activity against Candida albicans assessed as fungal growth inhibition measured after 24 hrs by micro broth dilution method; format: functional
Aspergillus fumigatus [12] = test: Antifungal activity against Aspergillus fumigatus assessed as fungal growth inhibition; format: functional
Candida albicans [13] = test: […] activity against Candida albicans assessed as […] measured after 24 hrs by microtitre dilution method; format: functional
Cryptococcus neoformans [14] = test: Antifungal activity against Cryptococcus neoformans assessed as fungal growth inhibition; format: functional
Fusarium oxysporum = test: Antifungal activity against Fusarium oxysporum assessed as inhibition of fungal growth; format: functional
Enterococcus faecalis = test: Antimicrobial activity against Enterococcus faecalis 10785 assessed as reduction in microbial growth by broth microdilution method; format: functional
Staphylococcus aureus = test: Antimicrobial activity against methicillin-resistant Staphylococcus aureus assessed as reduction in microbial growth by broth microdilution method; format: functional
Mycobacterium kansasii = test: Antimycobacterial activity against Mycobacterium kansasii assessed as microbial growth reduction; format: functional
Mycobacterium avium = test: Antimycobacterial activity against Mycobacterium avium assessed as microbial growth reduction; format: functional
[15] = test system: Mycobacterium intracellulare; test: Antimycobacterial activity against Mycobacterium intracellulare assessed as microbial growth reduction; format: functional
Candida albicans [16] = test: Inhibition of Candida albicans chitin synthase at 1 uM relative to control

**Q.** With `O=C(OC[C@H]1O[C@@H](n2ccc(=O)[nH]c2=O)[C@H](O)[C@@H]1O)c1cc(O)ccc1O` as the molecule, how does the MIC (Aspergillus fumigatus [1]) read?
**A.** 1000 µg/mL (≈ 2630 µM)

**Q.** And the MIC (Candida albicans [2])?
**A.** 1000 µg/mL (≈ 2630 µM)

**Q.** With `CSCC[C@H](NC(=O)N[C@@H](Cc1cccc(O)c1)C(=O)O)C(=O)NC(CN(C)C(=O)C1Cc2ccc(O)cc2C(C)N1)C(=O)N/C=C1/C[C@@H](O)[C@H](n2ccc(=O)[nH]c2=O)O1` (stereo not given in full) as the molecule, how does the MIC (Pseudomonas aeruginosa) read?
**A.** 6.25 µg/mL

**Q.** For `CCCCCCCNC[C@@H](O[C@@H]1O[C@H](CN)[C@@H](O)[C@H]1O)[C@H]1O[C@@H](n2ccc(=O)[nH]c2=O)[C@H](O)[C@@H]1O`, which MIC (Escherichia coli) is on record?
**A.** 2.5 µg/mL (≈ 4.97 µM)

**Q.** What about the IC50 [3] of the same molecule?
**A.** 0.33 µM

**Q.** With `C[C@@H]([C@H](N)C(=O)N[C@H](C(=O)O)[C@H]1O[C@@H](n2ccc(=O)[nH]c2=O)[C@H](O)[C@@H]1O)[C@H](O)c1ccc(O)cn1` [NIKKOMYCIN] as the molecule, how does the MIC [4] read?
**A.** 64 µg/mL

**Q.** What about the MIC (Candida albicans [5]) of the same molecule?
**A.** 8 µg/mL

**Q.** What about the MIC (Cryptococcus neoformans [6]) of the same molecule?
**A.** 0.03 µg/mL (≈ 0.0606 µM)

**Q.** What about the MIC (Coccidioides immitis) of the same molecule?
**A.** 0.25 µg/mL (≈ 0.505 µM)

**Q.** And the IC50 [7]?
**A.** 0.8 µM

**Q.** What about the MIC (Candida albicans [8]) of the same molecule?
**A.** 10 µg/mL (≈ 20.2 µM)

**Q.** What about the IC50 [9] of the same molecule?
**A.** 0.3 µg/mL (≈ 0.606 µM)

**Q.** For `CCOC(=O)CCSC[C@H]1O[C@@H](n2cnc3c(N)cccc32)[C@H](O)[C@@H]1O`, which MIC (Cryptococcus neoformans [10]) is on record?
**A.** 0.19 µM (≈ 0.0725 µg/mL)

**Q.** And the MIC (Candida albicans [11])?
**A.** 0.19 µM (≈ 0.0725 µg/mL)

**Q.** And the MIC (Aspergillus fumigatus [12])?
**A.** 0.19 µM (≈ 0.0725 µg/mL)

**Q.** With `CSCC[C@H](NC(=O)N[C@@H](Cc1cccc(O)c1)C(=O)O)C(=O)NC(CN(C)C(=O)C1Cc2ccc(O)cc2CN1)C(=O)N/C=C1/C[C@@H](O)[C@H](N2CCC(=O)NC2=O)O1` (stereo not given in full) as the molecule, how does the MIC (Pseudomonas aeruginosa) read?
**A.** 6.25 µg/mL

**Q.** For `Nc1cccc2c1ncn2[C@@H]1O[C@H](CSCCC(=O)O)[C@@H](O)[C@H]1O`, which MIC (Cryptococcus neoformans [10]) is on record?
**A.** 0.19 µM (≈ 0.0671 µg/mL)

**Q.** And the MIC (Candida albicans [11])?
**A.** 0.19 µM (≈ 0.0671 µg/mL)

**Q.** What about the MIC (Aspergillus fumigatus [12]) of the same molecule?
**A.** 0.19 µM (≈ 0.0671 µg/mL)

**Q.** For `NC(=O)OC[C@H](O)[C@@H](O)[C@H](N)C(=O)N[C@H](C(=O)O)[C@H]1O[C@@H](n2cc(C=O)[nH]c2=O)[C@H](O)[C@@H]1O`, which MIC (Candida albicans [13]) is on record?
**A.** 6 µg/mL (≈ 12.6 µM)

**Q.** For `COc1ccc(OCc2cn(C[C@H]3O[C@@H](n4ccc(=O)[nH]c4=O)[C@@H]4OC(C)(C)O[C@@H]43)nn2)cc1`, which MIC (Cryptococcus neoformans [14]) is on record?
**A.** 8 µg/mL (≈ 17 µM)

**Q.** And the MIC (Fusarium oxysporum)?
**A.** 32 µg/mL (≈ 67.9 µM)

**Q.** What about the MIC (Candida albicans [2]) of the same molecule?
**A.** 24 µg/mL (≈ 50.9 µM)

**Q.** Which MIC (Enterococcus faecalis) does the source give for `CC(C)[C@H](O)[C@H](N)C(=O)NCCCN[C@H](C(=O)OC(C)(C)C)[C@@H](O)[C@H]1O[C@@H](n2ccc(=O)[nH]c2=O)[C@H](O[Si](C)(C)C(C)(C)C)[C@@H]1O[Si](C)(C)C(C)(C)C` here?
**A.** 1 µg/mL

**Q.** And the MIC (Staphylococcus aureus)?
**A.** 1 µg/mL

**Q.** For `CCCCCCCCCCCCCCC(=O)O[C@@H]1[C@H](OC)[C@@H]([C@@H](O[C@@H]2OC(C(=O)N[C@H]3CCC[C@@H](C)NC3=O)=C[C@@H](O)[C@H]2O)C(N)=O)O[C@H]1n1ccc(=O)[nH]c1=O`, which MIC (Mycobacterium kansasii) is on record?
**A.** 0.063 µg/mL (≈ 0.078 µM)

**Q.** And the MIC (Mycobacterium avium)?
**A.** 0.063 µg/mL (≈ 0.078 µM)

**Q.** What about the MIC [15] of the same molecule?
**A.** 0.063 µg/mL (≈ 0.078 µM)

**Q.** For `N[C@@H](Cc1cc2ccccc2c2ccccc12)C(=O)N[C@@H](C(=O)O)[C@H]1O[C@@H](n2ccc(=O)[nH]c2=O)[C@H](O)[C@@H]1O`, which IC50 [9] is on record?
**A.** 0.31 µg/mL (≈ 0.58 µM)

**Q.** For `CCCCCCCCCCCCCNC[C@@H](O[C@@H]1O[C@H](CN)[C@@H](O)[C@H]1O)[C@H]1O[C@@H](n2ccc(=O)[nH]c2=O)[C@H](O)[C@@H]1O`, which MIC (Escherichia coli) is on record?
**A.** 2.5 µg/mL (≈ 4.26 µM)

**Q.** And the IC50 [3]?
**A.** 0.33 µM

**Q.** What does the source list for `C=CCSC[C@H]1O[C@@H](n2cnc3c([N+](=O)[O-])cccc32)[C@H](O)[C@@H]1O`?
**A.** MIC (Cryptococcus neoformans [10]): 0.19 µM (≈ 0.0668 µg/mL); MIC (Candida albicans [11]): 0.19 µM (≈ 0.0668 µg/mL); MIC (Aspergillus fumigatus [12]): 0.19 µM (≈ 0.0668 µg/mL)

**Q.** With `CCCCCCCCCCCNC[C@@H](O[C@@H]1O[C@H](CN)[C@@H](O)[C@H]1O)[C@H]1O[C@@H](n2ccc(=O)[nH]c2=O)[C@H](O)[C@@H]1O` as the molecule, how does the MIC (Escherichia coli) read?
**A.** 2.5 µg/mL (≈ 4.47 µM)

**Q.** And the IC50 [3]?
**A.** 0.33 µM

**Q.** Which results are given for `O=C(NC[C@@H]1O[C@H](n2ccc(=O)[nH]c2=O)[C@@H](O)[C@H]1O)OCCOC(=O)NC[C@H]1O[C@@H](n2ccc(=O)[nH]c2=O)[C@H](O)[C@@H]1O`?
**A.** IC50 [7]: 1.1 µM; inhibition (Candida albicans [16]): 32%

**Q.** Which MIC (Aspergillus fumigatus [1]) does the source give for `O=C(OC[C@H]1O[C@@H](n2ccc(=O)[nH]c2=O)[C@H](O)[C@@H]1O)c1ccccc1O` here?
**A.** 1000 µg/mL (≈ 2740 µM)

**Q.** And the MIC (Candida albicans [2])?
**A.** 1000 µg/mL (≈ 2740 µM)
